Assay results from patent publication US20060183721A1, “2-Methylene-19-nor-(20S-24epi)-1alpha,25-dihydroxyvitamin D2” (Wisconsin Alumni Research Foundation, priority 2005, published 2006).

Tests used:
[1] = molecular target: T1, full-length recombinant rat vitamin D receptor (Rattus norvegicus, UniProt P13053); assay: Vitamin D receptor competitive binding with [3H]-1,25-(OH)2-D3; details: compared with native hormone 1,25(OH)2D3; FIG. 1
T1 construct: Full-length recombinant rat receptor was expressed in E. coli BL21(DE3) Codon Plus RIL cells; histidine tag (C); made in house; host or cells: E. coli BL21(DE3) Codon Plus RIL
T1 sequence (P13053 1-423): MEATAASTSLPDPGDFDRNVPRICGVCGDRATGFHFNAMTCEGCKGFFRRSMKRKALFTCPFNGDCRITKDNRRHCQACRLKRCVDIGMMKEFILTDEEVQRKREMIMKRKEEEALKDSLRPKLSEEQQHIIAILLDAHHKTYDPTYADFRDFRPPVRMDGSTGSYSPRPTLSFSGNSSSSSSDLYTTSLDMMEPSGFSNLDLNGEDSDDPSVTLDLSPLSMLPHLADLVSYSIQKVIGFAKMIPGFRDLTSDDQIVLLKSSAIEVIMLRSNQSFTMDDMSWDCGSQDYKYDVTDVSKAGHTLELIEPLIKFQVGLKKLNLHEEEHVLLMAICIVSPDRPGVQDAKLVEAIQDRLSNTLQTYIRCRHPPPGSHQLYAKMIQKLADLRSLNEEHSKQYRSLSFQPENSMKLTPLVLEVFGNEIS
From the text: FIG. 1 is a graph comparing the relative activity of (20S/24R) 2-MD2 and 1,25(OH)2D3 to compete for binding with [^3H]-1,25-(OH)2-D3 to the full-length recombinant rat vitamin D receptor.
Full-length recombinant rat receptor was expressed in E. coli BL21(DE3) Codon Plus RIL cells and purified to homogeneity using two different column chromatography systems. The first system was a nickel affinity resin that utilizes the C-terminal histidine tag on this protein. The protein that was eluted from this resin was further purified using ion exchange chromatography (S-Sepharose Fast Flow). Aliquots of the purified protein were quick frozen in liquid nitrogen and stored at −80° C. until use. For use in binding assays, the protein was diluted in TEDK50 (50 mM Tris, 1.5 mM EDTA, pH 7.4, 5 mM DTT, 150 mM KCl) with 0.1% Chaps detergent. […]
Unlabeled ligands were dissolved in ethanol and the concentrations determined using UV spectrophotometry (1,25(OH)2D3: molar extinction coefficient=18,200 and λmax=265 nm; Analogs: molar extinction coefficient=42,000 and λmax=252 nm). […]
Radiolabeled and unlabeled ligands were added to 100 mcl of the diluted protein at a final ethanol concentration of ≦10%, mixed and incubated overnight on ice to reach binding equilibrium. […] Total binding was determined from the tubes containing only radiolabeled ligand.

[2] = system: Human promyelocytic leukemia (HL60) cells; assay: HL-60 cell differentiation (nitro blue tetrazolium reduction); assay type: cell-based; details: compared with 1,25-(OH)2D3; FIG. 2
Experimental: FIG. 2 is a graph comparing the percent HL-60 cell differentiation as a function of the concentration of (20S/24R) 2-MD2 with that of 1,25(OH)2D3.
The study drugs were dissolved in ethanol and the concentrations determined using UV spectrophotometry. Serial dilutions were prepared so that a range of drug concentrations could be tested without changing the final concentration of ethanol (≦0.2%) present in the cell cultures.
Human promyelocytic leukemia (HL60) cells were grown in RPMI-1640 medium containing 10% fetal bovine serum. The cells were incubated at 37° C. in the presence of 5% CO2.
HL60 cells were plated at 1.2×10^5 cells/ml. Eighteen hours after plating, cells in duplicate were treated with drug. Four days later, the cells were harvested and a nitro blue tetrazolium reduction assay was performed (Collins et al., 1979; J. Exp. Med. 149:969-974). The percentage of differentiated cells was determined by counting a total of 200 cells and recording the number that contained intracellular black-blue formazan deposits. Verification of differentiation to monocytic cells was determined by measuring phagocytic activity (data not shown).

[3] = system: 24-hydroxylase (24Ohase) gene promoter in ROS 17/2.8 (bone) cells; assay: In vitro transcription assay (24-hydroxylase promoter luciferase reporter); assay type: cell-based; details: compared with 1,25-(OH)2D3; ROS 17/2.8 cells, 24Ohase-luciferase; FIG. 3
Experimental: FIG. 3 is a graph comparing the in vitro transcription activity of (20S/24R) 2-MD2 with that of 1,25(OH)2D3.
Transcription activity was measured in ROS 17/2.8 (bone) cells that were stably transfected with a 24-hydroxylase (24Ohase) gene promoter upstream of a luciferase reporter gene (Arbour et al., 1998). Cells were given a range of doses. Sixteen hours after dosing the cells were harvested and luciferase activities were measured using a luminometer. RLU=relative luciferase units.

[4] = Bone calcium mobilization (serum calcium); assay type: in vivo, Sprague-Dawley rats; details: compared with 1,25-(OH)2D3, rats, four consecutive ip doses, FIG. 4
From the text: FIG. 4 is a bar graph comparing the bone calcium mobilization activity of (20S/24R) 2-MD2 with that of 1,25(OH)2D3.
(§1) Male, weanling Sprague-Dawley rats were placed on Diet 11 (Suda et al. J. Nutr. 100:1049, 1970) (0.47% Ca) diet+vitamins AEK for one week followed by Diet 11 (0.02% Ca)+AEK for 3 weeks. The rats were then switched to a diet containing 0.47% Ca for one week followed by two weeks on a diet containing 0.02% Ca. Dose administration began during the last week on 0.02% calcium diet. Four consecutive ip doses were given approximately 24 hours apart. Twenty-four hours after the last dose, blood was collected from the severed neck and the concentration of serum calcium determined as a measure of bone calcium mobilization. The first 10 cm of the intestine was also collected for intestinal calcium transport analysis using the everted gut sac method.

[5] = Intestinal calcium transport (everted gut sac method); assay type: in vivo, Sprague-Dawley rats; details: compared with 1,25-(OH)2D3, rats, four consecutive ip doses, FIG. 5
From the text: FIG. 5 is a bar graph comparing the intestinal calcium transport activity of (20S/24R) 2-MD2 with that of 1,25(OH)2D3.
as §1

C=C1[C@H](O)CC(=C/C=C2\CCC[C@]3(C)C([C@@H](C)/C=C/[C@@H](C)C(C)(C)O)CC[C@@H]23)C[C@H]1O (stereo in doubt) [2-methylene-19-nor-(20S-24epi)-1α,25-dihydroxyvitamin D2]
binding to the vitamin D receptor [1]: almost equal to the native hormone | inducing differentiation of HL-60 cells [2]: more activity than 1,25-(OH)2D3 | causing transcription [3]: more effective than 1,25-(OH)2D3 | bone calcium mobilizing activity [4]: more bone calcium mobilizing activity than 1,25-(OH)2D3 | intestinal calcium transport activity [5]: approximately equal to 1,25-(OH)2D3
